Consider 20 compounds from ChEMBL document CHEMBL4610006, “Tetrahydroquinoline units in flexible heteroarotinoids (Flex-Hets) convey anti-cancer properties in A2780 ovarian cancer cells” (Bioorg Med Chem, 2020).

For assay [1], the target named is T1, Stress-70 protein, mitochondrial (Homo sapiens, UniProt P38646). As to the kind of experiment: Binding affinity to mortalin substrate binding domain (unknown origin).
Assay [2] deals with T1, Stress-70 protein, mitochondrial.
Description: Binding affinity to mortalin substrate binding domain (unknown origin) assessed as change in Gibbs free energy
For assay [3], the system named is A2780. As to the kind of experiment: Antiproliferative activity against human A2780 cells assessed as cell growth inhibition measured after 72 hrs by CellTiter 96 non-radioactive cell proliferation assay. In kind it is functional, cell-based. The note with it: A2780, 72 h.
The subject of assay [4] is A2780. As to the kind of experiment: Antiproliferative activity against human A2780 cells assessed as cell growth inhibition at 2 to 8 uM measured after 72 hrs by CellTiter 96 non-radioactive cell proliferation assay relative to control. In kind it is functional.

Structures are written as SMILES.

T1 sequence (P38646 whole entry, the tested form may be a part): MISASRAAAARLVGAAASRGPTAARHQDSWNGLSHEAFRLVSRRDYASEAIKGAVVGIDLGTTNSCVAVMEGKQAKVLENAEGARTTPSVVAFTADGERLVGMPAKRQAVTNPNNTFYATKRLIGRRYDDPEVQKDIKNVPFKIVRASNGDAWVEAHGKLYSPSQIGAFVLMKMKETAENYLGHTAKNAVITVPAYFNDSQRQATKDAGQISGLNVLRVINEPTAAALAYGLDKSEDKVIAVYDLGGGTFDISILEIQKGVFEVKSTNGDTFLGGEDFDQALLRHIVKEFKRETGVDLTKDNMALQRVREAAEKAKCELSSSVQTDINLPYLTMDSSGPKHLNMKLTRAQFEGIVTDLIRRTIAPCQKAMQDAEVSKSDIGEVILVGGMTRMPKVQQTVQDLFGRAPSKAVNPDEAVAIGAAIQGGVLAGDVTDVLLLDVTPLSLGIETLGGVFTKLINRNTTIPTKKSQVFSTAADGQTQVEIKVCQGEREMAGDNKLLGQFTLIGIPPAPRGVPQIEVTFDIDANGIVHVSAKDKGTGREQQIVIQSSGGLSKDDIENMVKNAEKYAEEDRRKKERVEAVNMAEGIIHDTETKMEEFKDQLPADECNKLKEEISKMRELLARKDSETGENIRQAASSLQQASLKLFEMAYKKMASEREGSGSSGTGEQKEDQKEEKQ

With `CN1c2ccc(NC(=S)Nc3ccc(OC(F)(F)F)cc3)cc2C(C)(C)C(=O)C1(C)C`, the Kd in assay [1] worked out at 2.4 µM. The compound also displayed a deltaG in assay [2] of -7.7 kcal/mol. The IC50 with A2780 [3] was determined as 5.4 µM.

For the compound `CC1(C)CC[N+](C)(C)c2ccc(NC(=O)Nc3ccc([N+](=O)[O-])cc3)cc21`, binding in assay [1] was put at a Kd of 0.7 µM. The deltaG in assay [2] is -8.5 kcal/mol. For the same compound, the IC50 with A2780 [3] came to 6.6 µM.

`CN1c2ccc(NC(=S)Nc3ccc([N+](=O)[O-])cc3)cc2C(C)(C)C(=O)C1(C)C`: in assay [1], the Kd was 1.1 µM. The compound further had a deltaG in assay [2] of -8.2 kcal/mol. The IC50 with A2780 [3] was found to be 4.4 µM.

Regarding `CN1c2ccc(NC(=O)Nc3ccc([N+](=O)[O-])cc3)cc2C(C)(C)C(O)C1(C)C` (configuration not stated), the Kd in assay [1] was 1.6 µM. Also, in assay [2], the deltaG was -8 kcal/mol. The IC50 in the assay on A2780 [3] was 8.4 µM.

As to `CN1c2ccc(NC(=S)Nc3ccc(C(F)(F)F)cc3)cc2C(C)(C)C(=O)C1(C)C`, the Efficacy in the assay on A2780 [4] turned out to be 90.8%. Besides, the half-maximal inhibitory concentration (IC50) with A2780 [3] worked out at 3.9 µM.

In assay [1], `CN1c2ccc(NC(=S)Nc3ccc(C(F)(F)F)cc3)cc2C(C)(C)C(O)C1(C)C` (configuration not stated) displayed a Kd of 2.3 µM. This compound also returned a deltaG in assay [2] of -7.7 kcal/mol. Further, the IC50 in the assay on A2780 [3] came to 7.6 µM.

In assay [1], `CC1(C)CC(C)(C)c2cc(NC(=S)Nc3ccc([N+](=O)[O-])cc3)ccc2S1` [SHETA-2] returned a Kd of 0.6 µM. Moreover, the deltaG in assay [2] was -8.5 kcal/mol.

In the case of `CN1c2ccc(NC(=O)Nc3ccc(N)cc3)cc2C(C)(C)C(=O)C1(C)C`, the Kd in assay [1] was found to be 1.1 µM. In assay [2], this compound showed a deltaG of -8.2 kcal/mol. In the assay with A2780 [3], the IC50 was determined as 7.7 µM.

Consider `CN1c2ccc(NC(=O)Nc3ccc(C(F)(F)F)cc3)cc2C(C)(C)C(=O)C1(C)C`, for which the Kd in assay [1] came out at 1.5 µM. In assay [2], this compound registered a deltaG of -8 kcal/mol. In the assay with A2780 [3], the IC50 is 2.58 µM.

In turn, `CN1c2ccc(NC(=S)Nc3ccc([N+](=O)[O-])cc3)cc2C(C)(C)CC1(C)C` had a Kd in assay [1] of 0.5 µM. In assay [2], this compound showed a deltaG of -8.7 kcal/mol. The 50% inhibitory concentration (IC50) in the assay with A2780 [3] amounted to 4.5 µM.

As for `CC1(C)CCNc2ccc(NC(=S)Nc3ccc([N+](=O)[O-])cc3)cc21`, in assay [1], the Kd is 1.6 µM. Besides, the deltaG in assay [2] is -7.9 kcal/mol. Besides, in the assay on A2780 [3], the IC50 worked out at 7.1 µM.

Compound `CC1(C)CCNc2ccc(NC(=O)Nc3ccc([N+](=O)[O-])cc3)cc21` registered a Kd in assay [1] of 1.1 µM. The compound further yielded a deltaG in assay [2] of -8.2 kcal/mol. Moreover, the IC50 with A2780 [3] was 6.9 µM.

In the case of `CN1c2ccc(NC(=S)Nc3ccc([N+](=O)[O-])cc3)cc2C(C)(C)C(O)C1(C)C` (configuration not stated), the Efficacy in the assay on A2780 [4] was determined as 25%. Further, the IC50 with A2780 [3] was determined as 10 µM.

As for `CN1c2ccc(NC(=S)Nc3ccc(OC(F)(F)F)cc3)cc2C(C)(C)C(O)C1(C)C` (configuration not stated), the Kd in assay [1] stood at 2.9 µM. In addition, in assay [2], the deltaG is -7.6 kcal/mol. Further, the IC50 in the assay with A2780 [3] was 13.1 µM.

`CC1(C)CCNc2ccc(NC(=S)Nc3ccc(C(F)(F)F)cc3)cc21` registered a Kd in assay [1] of 3.3 µM. Also, the deltaG in assay [2] was -7.5 kcal/mol. Besides, the concentration for half-maximal inhibition (IC50) with A2780 [3] was found to be 6 µM.

Consider `CN1c2ccc(NC(=O)Nc3ccc(OC(F)(F)F)cc3)cc2C(C)(C)C(O)C1(C)C` (configuration not stated), for which the Kd in assay [1] came to 1.1 µM. In assay [2], this compound displayed a deltaG of -8.2 kcal/mol. For the same compound, the IC50 with A2780 [3] turned out to be 7.8 µM.

As to `CC1(C)CCNc2ccc(NC(=S)Nc3ccc(OC(F)(F)F)cc3)cc21`, the dissociation constant (Kd) in assay [1] was 5.4 µM. The compound also displayed a deltaG in assay [2] of -7.2 kcal/mol. Besides, the IC50 in the assay on A2780 [3] is 7.1 µM.

Consider `CN1c2ccc(NC(=O)Nc3ccc(OC(F)(F)F)cc3)cc2C(C)(C)C(=O)C1(C)C`, for which the Kd in assay [1] stood at 1.8 µM. Moreover, the deltaG in assay [2] was -7.9 kcal/mol. The IC50 with A2780 [3] is 2.4 µM.

The compound `CN1c2ccc(NC(=O)Nc3ccc([N+](=O)[O-])cc3)cc2C(C)(C)C(=O)C1(C)C` registered a dissociation constant (Kd) in assay [1] of 0.3 µM. For the same compound, the deltaG in assay [2] is -8.9 kcal/mol. In addition, in the assay with A2780 [3], the IC50 amounted to 3.8 µM.

With `CN1c2ccc(NC(=O)Nc3ccc(C(F)(F)F)cc3)cc2C(C)(C)C(O)C1(C)C` (configuration not stated), the Kd in assay [1] was found to be 0.7 µM. The compound also came in with a deltaG in assay [2] of -8.4 kcal/mol. Moreover, in the assay with A2780 [3], the IC50 is 6.7 µM.
